Laboratory results as given in ChEMBL document CHEMBL5528002, “Identification of selective 5-LOX and FLAP inhibitors as novel anti-inflammatory agents by ligand-based virtual screening” (Eur J Med Chem, 2024).

What was measured:
[1] = biological target: T1, Polyunsaturated fatty acid 5-lipoxygenase (Homo sapiens) (UniProt P09917); assay: Inhibition of 5-LOX in human Neutrophil assessed as enzyme remaining activity at 10 uM using arachidonic acid as substrate preincubated with compound for 15 mins followed by substrate and A23187 addition measured after 10 mins by RP-HPLC analysis relative to control; format: cell-based; details: time 25.0 min
T1 sequence (whole entry): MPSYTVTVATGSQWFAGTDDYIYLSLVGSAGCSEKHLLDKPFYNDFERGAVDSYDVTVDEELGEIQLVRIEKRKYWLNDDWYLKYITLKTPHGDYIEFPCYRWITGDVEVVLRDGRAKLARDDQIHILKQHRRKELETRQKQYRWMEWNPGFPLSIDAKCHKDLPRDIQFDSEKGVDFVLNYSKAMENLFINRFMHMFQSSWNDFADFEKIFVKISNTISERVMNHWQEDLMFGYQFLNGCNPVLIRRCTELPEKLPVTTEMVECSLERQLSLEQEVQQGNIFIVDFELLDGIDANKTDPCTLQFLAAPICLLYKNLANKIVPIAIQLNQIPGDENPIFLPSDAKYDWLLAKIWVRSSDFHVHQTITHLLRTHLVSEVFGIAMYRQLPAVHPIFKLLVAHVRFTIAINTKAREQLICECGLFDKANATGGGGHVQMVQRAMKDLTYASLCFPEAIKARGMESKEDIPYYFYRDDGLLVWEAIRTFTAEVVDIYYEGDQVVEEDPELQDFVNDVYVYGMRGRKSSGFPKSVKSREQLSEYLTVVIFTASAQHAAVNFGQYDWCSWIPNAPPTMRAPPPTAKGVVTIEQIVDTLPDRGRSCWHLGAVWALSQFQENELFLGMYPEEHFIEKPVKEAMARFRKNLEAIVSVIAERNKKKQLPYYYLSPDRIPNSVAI

[2] = system: Macrophage cell line; assay: Effect on lipid mediator formation in human M1-like phenotype MDM cells by measuring t-LTB4 formation at 10 uM pre-incubated for 15 mins followed by SACM stimulation and measured after 90 mins by UPLC-MS/MS analysis (reference value: 338 +/- 102 pg/ml); format: functional; details: time 105 min, 1.75 h
[3] = system: Macrophage cell line; assay: Effect on lipid mediator formation in human M1-like phenotype MDM cells by measuring LTB4 formation at 10 uM pre-incubated for 15 mins followed by SACM stimulation and measured after 90 mins by UPLC-MS/MS analysis (reference value: 1413 +/- 452 pg/ml); format: functional; details: time 105 min, 1.75 h
[4] = system: Macrophage cell line; assay: Effect on lipid mediator formation in human M1-like phenotype MDM cells by measuring PGD2 formation at 10 uM pre-incubated for 15 mins followed by SACM stimulation and measured after 90 mins by UPLC-MS/MS analysis (reference value: 46 +/- 15 pg/ml); format: functional; details: time 105 min, 1.75 h
[5] = system: Macrophage cell line; assay: Effect on lipid mediator formation in human M1-like phenotype MDM cells by measuring 15-HEPE formation at 10 uM pre-incubated for 15 mins followed by SACM stimulation and measured after 90 mins by UPLC-MS/MS analysis (reference value: 57 +/- 10 pg/ml); format: functional; details: time 105 min, 1.75 h
[6] = system: Macrophage cell line; assay: Effect on lipid mediator formation in human M1-like phenotype MDM cells by measuring 15-HETE formation at 10 uM pre-incubated for 15 mins followed by SACM stimulation and measured after 90 mins by UPLC-MS/MS analysis (reference value: 910 +/- 229 pg/ml); format: functional; details: time 105 min, 1.75 h
[7] = system: Macrophage cell line; assay: Effect on lipid mediator formation in human M1-like phenotype MDM cells by measuring 5,15-diHETE formation at 10 uM pre-incubated for 15 mins followed by SACM stimulation and measured after 90 mins by UPLC-MS/MS analysis (reference value: 122 +/- 58 pg/ml); format: functional; details: time 105 min, 1.75 h
[8] = system: Macrophage cell line; assay: Effect on lipid mediator formation in human M1-like phenotype MDM cells by measuring LTB4 formation at 10 uM pre-incubated for 15 mins followed by SACM stimulation and measured after 90 mins by UPLC-MS/MS analysis relative to control; format: functional; details: time 105 min, 1.75 h
[9] = system: Macrophage cell line; assay: Effect on lipid mediator formation in human M1-like phenotype MDM cells by measuring PGD2 formation at 10 uM pre-incubated for 15 mins followed by SACM stimulation and measured after 90 mins by UPLC-MS/MS analysis relative to control; format: functional; details: time 105 min, 1.75 h
[10] = system: Macrophage cell line; assay: Effect on lipid mediator formation in human M1-like phenotype MDM cells by measuring PGF2alpha formation at 10 uM pre-incubated for 15 mins followed by SACM stimulation and measured after 90 mins by UPLC-MS/MS analysis relative to control; format: functional; details: time 105 min, 1.75 h
[11] = system: Macrophage cell line; assay: Effect on lipid mediator formation in human M1-like phenotype MDM cells by measuring 7-HDHA formation at 10 uM pre-incubated for 15 mins followed by SACM stimulation and measured after 90 mins by UPLC-MS/MS analysis relative to control; format: functional; details: time 105 min, 1.75 h
[12] = system: Macrophage cell line; assay: Effect on lipid mediator formation in human M1-like phenotype MDM cells by measuring EPA formation at 10 uM pre-incubated for 15 mins followed by SACM stimulation and measured after 90 mins by UPLC-MS/MS analysis relative to control; format: functional; details: time 105 min, 1.75 h
[13] = system: Macrophage cell line; assay: Effect on lipid mediator formation in human M2-like phenotype MDM cells by measuring LTB4 formation at 10 uM pre-incubated for 15 mins followed by SACM stimulation and measured after 90 mins by UPLC-MS/MS analysis (reference value: 509 +/- 30 pg/ml); format: functional; details: time 105 min, 1.75 h
[14] = system: Macrophage cell line; assay: Effect on lipid mediator formation in human M2-like phenotype MDM cells by measuring RvD5 formation at 10 uM pre-incubated for 15 mins followed by SACM stimulation and measured after 90 mins by UPLC-MS/MS analysis (reference value: 344 +/- 92 pg/ml); format: functional; details: time 105 min, 1.75 h
[15] = system: Macrophage cell line; assay: Effect on lipid mediator formation in human M2-like phenotype MDM cells by measuring 15-HEPE formation at 10 uM pre-incubated for 15 mins followed by SACM stimulation and measured after 90 mins by UPLC-MS/MS analysis relative to control; format: functional; details: time 105 min, 1.75 h
[16] = system: Macrophage cell line; assay: Effect on lipid mediator formation in human M2-like phenotype MDM cells by measuring 5,15-diHETE formation at 10 uM pre-incubated for 15 mins followed by SACM stimulation and measured after 90 mins by UPLC-MS/MS analysis relative to control; format: functional; details: time 105 min, 1.75 h
[17] = system: Macrophage cell line; assay: Effect on lipid mediator formation in human M2-like phenotype MDM cells by measuring RvD2 formation at 10 uM pre-incubated for 15 mins followed by SACM stimulation and measured after 90 mins by UPLC-MS/MS analysis relative to control; format: functional; details: time 105 min, 1.75 h
[18] = system: Macrophage cell line; assay: Effect on lipid mediator formation in human M2-like phenotype MDM cells by measuring EPA formation at 10 uM pre-incubated for 15 mins followed by SACM stimulation and measured after 90 mins by UPLC-MS/MS analysis relative to control; format: functional; details: time 105 min, 1.75 h
[19] = biological target: T1, Polyunsaturated fatty acid 5-lipoxygenase (Homo sapiens); assay: Inhibition of 5-LOX in human Neutrophil at 10 uM preincubated with compound for 15 mins followed by A23187 addition measured after 10 mins by RP-HPLC analysis relative to control; format: cell-based; details: time 25.0 min
[20] = system: Macrophage; assay: Cytotoxicity against human MDM cells assessed as reduction in cell viability at 10 uM incubated for 24 hrs by MTT assay; format: toxicity, cell-based; details: macrophage cell line

Row | Activity [1] [%] | inhibition [19] [%] | Structure (SMILES) | Activity [2] [pg/mL] | Activity [3] [pg/mL] | Activity [4] [pg/mL] | Activity [5] [pg/mL] | Activity [6] [pg/mL] | Activity [7] [pg/mL] | Activity [8] [%] | Activity [9] [%] | Activity [10] [%] | Activity [11] [%] | Activity [12] [%] | Activity [13] [pg/mL] | Activity [14] [pg/mL] | Activity [15] [%] | Activity [16] [%] | Activity [17] [%] | Activity [18] [%] | Activity [20]
1 | 24.3 | > 50 | Oc1ccc(CCC2CCC(c3ccc(O)cc3)CO2)cc1 (stereo not given) | 29 | 79 | 40 | 55 | 776 | 37 | 6 | 88 | 70 | 38 | 113 | 71 | 361 | 140 | 61 | 96 | 119 | Non-Toxic
2 | 18.6 | > 50 | COc1ccc(C2=C/C(=C/c3ccc(O)cc3O)C(=O)O2)cc1 | 28 | 115 | 72 | 55 | 823 | 16 | 8 | 157 | 89 | 31 | 136 | 22 | 575 | 157 | 39 | 112 | 103 | Non-Toxic
